# In paper PMC9276671, “A first-in-human Phase I dose-escalation trial of the novel therapeutic peptide, ALM201, demonstrates a favourable safety profile in unselected patients with ovarian cancer and other advanced solid tumours” (British Journal of Cancer, 2022):
# No end group written: not given here.
# Experiment: Plasma pharmacokinetics of ALM201 in Phase I patients (validated LC-MS/MS, Phoenix WinNonlin)
# Conditions: human, plasma, sc; for Tmax: median; for Tmax / AUC(0-t) / Cmax: plasma LC-MS/MS; for AUC(0-t): AUC0-t; for AUC(0-t) / Cmax: Gmean (CV); for level at 0.25 h / level at 0.75 h / level at 1.5 h / level at 2 h / level at 3 h / level at 4 h / level at 5 h / level at 6 h / level at 0.5 h / level at 1 h / level at 3.5 h: Plasma concentration, geometric mean (CV%), LC-MS/MS; for level at 0.25 h: day 1 cycle 1, 0.25 h after dosing; for level at 0.75 h: day 1 cycle 1, 0.75 h after dosing; for level at 3 h: day 1 cycle 1, 3 h after dosing; for level at 4 h: day 1 cycle 1, 4 h after dosing; for level at 6 h: day 1 cycle 1, 6 h after dosing
# [1] = 100 mg, 100 mg SC, day 1 cycle 1, n = 4
# [2] = 100 mg, 100 mg SC, day 3 cycle 1, n = 4
# [3] = 100 mg, 100 mg SC, day 18 cycle 1, n = 2, CV not calculated
# [4] = 100 mg, 100 mg SC, day 18 cycle 2, n = 1
# [5] = 160 mg, 160 mg SC, day 1 cycle 1, n = 3
# [6] = 160 mg, 160 mg SC, day 3 cycle 1, n = 3
# [7] = 160 mg, 160 mg SC, day 18 cycle 1, n = 3
# [8] = 160 mg, 160 mg SC, day 18 cycle 2, n = 1
# [9] = 200 mg, 200 mg SC, day 1 cycle 1, n = 4
# [10] = 200 mg, 200 mg SC, day 3 cycle 1, n = 4
# [11] = 200 mg, 200 mg SC, day 18 cycle 1, n = 3
# [12] = 200 mg, 200 mg SC, day 18 cycle 4, n = 2, CV not calculated
sequence,measurement,setting,value
IRQQPRDPPTETLELEVSPDPAS [ALM201],Tmax,"80 mg, 80 mg SC, day 18 cycle 2, n = 1",3.5 h
same,AUC(0-t),[1],6280 ng·h/mL
same,AUC(0-t),[2],8870 ng·h/mL
same,AUC(0-t),[3],8100 ng·h/mL
same,AUC(0-t),[4],5930 ng·h/mL
same,Cmax,[1],1810 ng/mL
same,Cmax,[2],2750 ng/mL
same,Cmax,[3],2330 ng/mL
same,Cmax,[4],1790 ng/mL
same,level at 0.25 h,"100 mg, 100 mg SC, n = 4",492 ng/mL
same,level at 0.75 h,"100 mg, 100 mg SC, n = 4",1220 ng/mL
same,level at 1.5 h,"100 mg, 100 mg SC, day 1 cycle 1, 1.5 h after dosing, n = 4",1810 ng/mL
same,level at 2 h,"100 mg, 100 mg SC, day 1 cycle 1, 2 h after dosing, n = 4",1590 ng/mL
same,level at 3 h,"100 mg, 100 mg SC, n = 4",1150 ng/mL
same,level at 4 h,"100 mg, 100 mg SC, n = 4",922 ng/mL
same,level at 5 h,"100 mg, 100 mg SC, day 1 cycle 1, 5 h after dosing, n = 4, NQ value substituted with 100 ng/mL",664 ng/mL
same,level at 6 h,"100 mg, 100 mg SC, n = 4, NQ value substituted with 100 ng/mL",560 ng/mL
same,level at 0.5 h,"100 mg, 100 mg SC, day 3 cycle 1, 0.5 h after dosing, n = 4",1730 ng/mL
same,level at 1 h,"100 mg, 100 mg SC, day 3 cycle 1, 1 h after dosing, n = 4",2100 ng/mL
same,level at 1.5 h,"100 mg, 100 mg SC, day 3 cycle 1, 1.5 h after dosing, n = 4",2530 ng/mL
same,level at 2 h,"100 mg, 100 mg SC, day 3 cycle 1, 2 h after dosing, n = 4",2400 ng/mL
same,level at 3.5 h,"100 mg, 100 mg SC, day 3 cycle 1, 3.5 h after dosing, n = 4",1690 ng/mL
same,level at 5 h,"100 mg, 100 mg SC, day 3 cycle 1, 5 h after dosing, n = 4",928 ng/mL
same,level at 0.5 h,"100 mg, 100 mg SC, day 18 cycle 1, 0.5 h after dosing, n = 2",1890 ng/mL
same,level at 1 h,"100 mg, 100 mg SC, day 18 cycle 1, 1 h after dosing, n = 2",1840 ng/mL
same,level at 1.5 h,"100 mg, 100 mg SC, day 18 cycle 1, 1.5 h after dosing, n = 2",2210 ng/mL
same,level at 2 h,"100 mg, 100 mg SC, day 18 cycle 1, 2 h after dosing, n = 2",2130 ng/mL
same,level at 3.5 h,"100 mg, 100 mg SC, day 18 cycle 1, 3.5 h after dosing, n = 2",1490 ng/mL
same,level at 5 h,"100 mg, 100 mg SC, day 18 cycle 1, 5 h after dosing, n = 2",961 ng/mL
same,level at 0.5 h,"100 mg, 100 mg SC, day 18 cycle 2, 0.5 h after dosing, n = 1",1060 ng/mL
same,level at 1 h,"100 mg, 100 mg SC, day 18 cycle 2, 1 h after dosing, n = 1",1790 ng/mL
same,level at 1.5 h,"100 mg, 100 mg SC, day 18 cycle 2, 1.5 h after dosing, n = 1",1710 ng/mL
same,level at 2 h,"100 mg, 100 mg SC, day 18 cycle 2, 2 h after dosing, n = 1",1570 ng/mL
same,level at 3.5 h,"100 mg, 100 mg SC, day 18 cycle 2, 3.5 h after dosing, n = 1",1180 ng/mL
same,Tmax,[1],1.5 h
same,Tmax,[2],1.61 h
same,Tmax,"100 mg, 100 mg SC, day 18 cycle 1, n = 2",1.9 h
same,Tmax,[4],1.02 h
same,AUC(0-t),[5],6510 ng·h/mL
same,AUC(0-t),[6],5100 ng·h/mL
same,AUC(0-t),[7],4930 ng·h/mL
same,AUC(0-t),[8],5710 ng·h/mL
same,Cmax,[5],1990 ng/mL
same,Cmax,[6],1490 ng/mL
same,Cmax,[7],1350 ng/mL
same,Cmax,[8],1870 ng/mL
same,level at 0.25 h,"160 mg, 160 mg SC, n = 3",833 ng/mL
same,level at 0.75 h,"160 mg, 160 mg SC, n = 3",1570 ng/mL
same,level at 1.5 h,"160 mg, 160 mg SC, day 1 cycle 1, 1.5 h after dosing, n = 3",1670 ng/mL
same,level at 2 h,"160 mg, 160 mg SC, day 1 cycle 1, 2 h after dosing, n = 3",1480 ng/mL
same,level at 3 h,"160 mg, 160 mg SC, n = 3",1280 ng/mL
same,level at 4 h,"160 mg, 160 mg SC, n = 3",866 ng/mL
same,level at 5 h,"160 mg, 160 mg SC, day 1 cycle 1, 5 h after dosing, n = 3",510 ng/mL
same,level at 6 h,"160 mg, 160 mg SC, n = 3",283 ng/mL
same,level at 0.5 h,"160 mg, 160 mg SC, day 3 cycle 1, 0.5 h after dosing, n = 3",956 ng/mL
same,level at 1 h,"160 mg, 160 mg SC, day 3 cycle 1, 1 h after dosing, n = 3",1270 ng/mL
same,level at 1.5 h,"160 mg, 160 mg SC, day 3 cycle 1, 1.5 h after dosing, n = 3",1460 ng/mL
same,level at 2 h,"160 mg, 160 mg SC, day 3 cycle 1, 2 h after dosing, n = 3",1350 ng/mL
same,level at 3.5 h,"160 mg, 160 mg SC, day 3 cycle 1, 3.5 h after dosing, n = 3",926 ng/mL
same,level at 5 h,"160 mg, 160 mg SC, day 3 cycle 1, 5 h after dosing, n = 3",613 ng/mL
same,level at 0.5 h,"160 mg, 160 mg SC, day 18 cycle 1, 0.5 h after dosing, n = 3",940 ng/mL
same,level at 1 h,"160 mg, 160 mg SC, day 18 cycle 1, 1 h after dosing, n = 3",1150 ng/mL
same,level at 1.5 h,"160 mg, 160 mg SC, day 18 cycle 1, 1.5 h after dosing, n = 3",1280 ng/mL
same,level at 2 h,"160 mg, 160 mg SC, day 18 cycle 1, 2 h after dosing, n = 3",1200 ng/mL
same,level at 3.5 h,"160 mg, 160 mg SC, day 18 cycle 1, 3.5 h after dosing, n = 3",995 ng/mL
same,level at 5 h,"160 mg, 160 mg SC, day 18 cycle 1, 5 h after dosing, n = 3",577 ng/mL
same,level at 0.5 h,"160 mg, 160 mg SC, day 18 cycle 2, 0.5 h after dosing, n = 1",1380 ng/mL
same,level at 1 h,"160 mg, 160 mg SC, day 18 cycle 2, 1 h after dosing, n = 1",1380 ng/mL
same,level at 1.5 h,"160 mg, 160 mg SC, day 18 cycle 2, 1.5 h after dosing, n = 1",1650 ng/mL
same,level at 2 h,"160 mg, 160 mg SC, day 18 cycle 2, 2 h after dosing, n = 1",1870 ng/mL
same,level at 3.5 h,"160 mg, 160 mg SC, day 18 cycle 2, 3.5 h after dosing, n = 1",870 ng/mL
same,Tmax,[5],1.52 h
same,Tmax,[8],2 h
same,AUC(0-t),[9],5860 ng·h/mL
same,AUC(0-t),[10],6630 ng·h/mL
same,AUC(0-t),[11],5570 ng·h/mL
same,AUC(0-t),[12],6110 ng·h/mL
same,Cmax,[9],1490 ng/mL
same,Cmax,[10],1620 ng/mL
same,Cmax,[11],1670 ng/mL
same,Cmax,"200 mg, 200 mg SC, day 18 cycle 2, n = 2, CV not calculated",1890 ng/mL
same,Cmax,[12],1680 ng/mL
same,level at 0.25 h,"200 mg, 200 mg SC, n = 4",479 ng/mL
same,level at 0.75 h,"200 mg, 200 mg SC, n = 4",1040 ng/mL
same,level at 1.5 h,"200 mg, 200 mg SC, day 1 cycle 1, 1.5 h after dosing, n = 4",1240 ng/mL
same,level at 2 h,"200 mg, 200 mg SC, day 1 cycle 1, 2 h after dosing, n = 4",1370 ng/mL
same,level at 3 h,"200 mg, 200 mg SC, n = 4",1360 ng/mL
same,level at 4 h,"200 mg, 200 mg SC, n = 4",1050 ng/mL
same,level at 5 h,"200 mg, 200 mg SC, day 1 cycle 1, 5 h after dosing, n = 4",620 ng/mL
